Results: US20240261267A1, “METHODS FOR TREATING MULTIPLE SCLEROSIS” (Vanda Pharmaceuticals Inc., priority 2021, published 2024)

Experiments:
primary mouse OPCs = assay: differentiation assay, quantitative PCR; format: cell-based
Description: The effects of ponesimod, a selective S1P1 receptor agonist, and A971432, a selective S1P5 receptor agonist, on oligodendrocyte precursor cell (OPC) migration and differentiation were evaluated. Nine concentrations were tested (logarithmic dilutions ranging from 0.3 nM to 3000 nM, n=6 per concentration). Fingolimod phosphate (P-FTY720, 3000 nM, n=6) was included as a positive control, 0.1% DMSO was included (min.one/plate) as a negative control. Primary mouse OPCs were harvested on postnatal day 0 or 1 and mixed glia cultures were maintained for 14 days. Primary OPCs were then purified using the shake-off method, and used for either a migration assay, or a differentiation assay, as detailed below. To harvest primary mouse OPCs, cortices are isolated from mouse pups on postnatal day 0 or 1 and placed in ice-cold Dulbecco's Modified Eagle Medium (DMEM) (Sigma Aldrich, Overijse, BE). The cortices are homogenized and centrifuged for 5 minutes at 300 G. The supernatant is removed, and a papain solution is added for 30 minutes (125 uL DMEM solution per brain containing 20 units/ml papain and 40 μg/ml DNase, at 37 degrees). Digestion is inactivated by adding 9 ml cold DMEM. The solution is then centrifuged for 5 minutes at […]. The supernatant is carefully removed, and the pellet is resuspended in 2-5 ml culture medium (DMEM with 10% fetal calf serum (Biowest, Nuaillé, FR) and 1% pen/strep (Sigma Aldrich, Overijse, BE)). […] Cell suspension is divided over PLL (Sigma Aldrich, Overijse, BE)-coated flasks (2 brains per flask) and DMEM is added to a final volume of 10 ml. DMEM is replaced on day 4, 7, and 11. On day 7 and 11, insulin (Sigma Aldrich, Overijse, BE) is added to the medium (5μg/ml). On day 14, OPCs are separated from astrocytes by the shake-off method: flasks are placed on a shaker for 45 minutes at 75 rpm (37 degrees). The medium is then aspirated and discarded, and 10 ml fresh culture medium is added. Flasks are then returned to the shaker for 16-18 hours shaking at 280 rpm. Next, the medium is isolated, and this cell suspension is placed in a plastic petri dish and incubated for 25 minutes. The medium, which contains the OPCs, is then collected and centrifuged for 5 minutes at 300 G. Cells are then resuspended in SATO differentiation medium containing 2% horse serum, 2% B-27, 50 U/ml P/S, 2.4 μl/ml transferrin, 1.04 μl/ml L-thyroxine, 1 μl/ml putrescin, 1 μl/ml progesterone, 1 μl/ml TIT, 0.74 μl/ml sodium selenite and 0.5 μl/ml insulin (all from Sigma-Aldrich, Overijse, BE). […] After shake-off, cells are reset for their differentiation status: one hour after plating, cells are treated with platelet-derived growth factor (PDGF, 10 ng/ml, Peprotech EC Ltd, London, UK) and fibroblast growth factor (fgf, 10 ng/ml, Peprotech EC Ltd, London, UK). Twenty-four hours after plating, cells are treated again with fgf (10 ng/ml). 250,000 cells are plated onto glass coverslips in 24-well plates. Cells are treated with test compound or DMSO on day 1 (twenty-four hours after fgf treatment) and 3, and lysated on day 4. Total RNA was isolated from primary OPCs, using the RNeasy mini kit (Qiagen, Venlo, the Netherlands), according to the manufacturer's instructions. RNA concentration and quality is analyzed with a Nanodrop spectrophotometer (Isogen Life Science, Leiden, The Netherlands). RNA is reverse-transcribed using the qScript cDNA Supermix kit (Quanta, Leuven, Belgium). qPCR is performed to analyze gene expression, using the Applied Biosystems QuantStudio 3 Real-Time PCR System (Life Technologies, Gent, Belgium). The reaction mixture consists of SYBR Green master mix (Life Technologies, Carlsbad, USA), 10 μM forward and reverse primers (Integrated DNA Technologies, Leuven, Belgium), nuclease-free water and cDNA template (12.5 ng), up to a total reaction volume of 10 μl. […] All data was normalised against plate-matched negative controls.

[1] = system: adult subjects with relapsing MS; assay: Phase III OPTIMUM study, safety and treatment discontinuation
Description: A prospective, multicenter, randomized, double-blind, active controlled, parallel-group, phase III, superiority study (Phase III OPTIMUM study) was conducted.
Subjects had active disease evidenced by one or more MS attacks with onset within the period of 12 to 1 months prior to baseline EDSS assessment, or by two or more MS attacks with onset within the 24 to 1 months prior to baseline EDSS assessment, or with one or more gadolinium-enhancing (Gd+) lesion(s) of the brain on an MRI performed within 6 months prior to baseline EDSS assessment. Enrolled subjects were ambulatory with an EDSS score of up to 5.5 inclusive. The subjects were treatment-naïve (i.e., no MS disease-modifying therapy received at any time in the past) or previously treated with interferon (IFN) β-1a, IFN β-1b, glatiramer acetate, dimethyl fumarate, or natalizumab.
The treatment period consisted of an up-titration period (from Day 1 to 14) and a maintenance period (Day 15 until EOT).
To reduce the first-dose effect of ponesimod, an up-titration scheme was implemented from Day 1 to Day 14: • Days 1 and 2; 2 mg. • Days 3 and 4; 3 mg. • Days 5 and 6; 4 mg. • Day 7; 5 mg. • Day 8; 6 mg. • Day 9; 7 mg. • Day 10; 8 mg. • Day 11; 9 mg. • Days 12, 13, and 14; 10 mg. • Day 15 until EOT; 20 mg.
The Safety Set (SAF) included all randomized subjects who received at least one dose of study treatment. Subjects were analyzed based on actual treatment taken, not randomized treatment.

[2] = system: normal appearing white matter (NAWM) of MS patients; assay: Phase III OPTIMUM study, myelination estimated from standardized T1/T2 MRI; format: in vivo, human
Source text: The impact of treatment on myelination changes in normal appearing white matter (NAWM) which sustains damage early in the MS disease course was compared
Myelination was estimated from T1 and T2-weighted magnetic resonance images collected at baseline, week 60 and week 108 in 427 patients treated with ponesimod and 428 with teriflunomide. Standardized T1/T2 was used to quantify myelination in non-lesional corpus callosum, cingulum, and remaining NAWM. Average myelination change (ΔM) from baseline at weeks 60 (w60) and 108 (w108) were compared across treatment arms using two-sided two sample t-tests, all p-values nominal.

MS patients = assay: Phase III OPTIMUM study, efficacy outcomes; format: in vivo, human; details: ponesimod 20 mg compared with teriflunomide 14 mg
[3] = Safety Set, ponesimod 20 mg, teriflunomide 14 mg
[4] = ponesimod 20 mg, teriflunomide 14 mg

## O=C(O)C1CN(Cc2ccc(OCc3ccc(Cl)c(Cl)c3)cc2)C1 [A97]
Primary mouse OPCs; 3 nM
  MOG expression: significant decrease
  Mag gene expression: significant decrease
  Mbp expression: decrease
Primary mouse OPCs; 10 nM
  Mag gene expression: significant decrease
  Mbp expression: decrease
  Ng2 gene expression: significant decrease
  PLP expression: significant decrease
Primary mouse OPCs; 30 nM
  Mag gene expression: significant decrease
  Mobp expression: significant decrease
  Ng2 gene expression: significant decrease
Primary mouse OPCs; 100 nM
  Mobp expression: significant decrease
Primary mouse OPCs; 300 nM
  MOG expression: significant decrease
  PLP expression: significant decrease
Primary mouse OPCs; 1000 nM
  Mag gene expression: significant decrease
  Mbp expression: decrease
  Mobp expression: significant decrease
  Ng2 gene expression: significant decrease
  PLP expression: significant decrease
Primary mouse OPCs; concentration series
  expression of Ng2, Plp, Mbp, Mobp, Mog, and Mag: significant concentration-dependent decreases

## CCC/N=C1\S/C(=C\c2ccc(OC[C@H](O)CO)c(Cl)c2)C(=O)N1c1ccccc1C [ponesimod, (R)-5-[3-chloro-4-(2,3-dihydroxy-propoxy)-benz[Z]ylidene]-2-([Z]-propylimino)-3-o-tolyl-thiazolidin-4-one]
[1]; Day 1, first dose
  2nd or higher degree AV block: No 2nd or higher degree AV block
  ECG HR effect: nadir: 2 hours post-dose
  subjects meeting discharge criteria at 4 hours post-dose: ca. 99%
[1]; Day 1, all with pre-treatment HR<55 bpm
  subjects with asymptomatic post-dose HR≤40 bpm: 3
[1]; [3]
  AEs leading to premature discontinuation of study drug, SOC Reproductive system and breast disorders: 0 n
  AEs leading to premature discontinuation of study drug, SOC Surgical and medical procedures: 0 n
  Premature treatment discontinuation: Death: 0 n
  Subject with at least one AE leading to study drug discontinuation: 8.7%
  Subject with at least one Fatal AE: 0 n
  Subject with at least one Serious AE: 8.7%
  Subject with at least one treatment-emergent AE: 88.8%
  Treatment-emergent AESI: Hepatobiliary disorders/Liver enzyme abnormality: 25.7%
  Treatment-emergent AESI: Hypertension: 10.1%
  Treatment-emergent AESI: Pulmonary events: 8.0%
[1]; at 2-hours post dose, Day 1
  mean heart rate reduction compared to pre-dose: −8.7 bpm
[1]; on Day 1, Safety Set
  AESI heart rate and rhythm: Electrocardiogram QT prolonged: 0 n
  AESI heart rate and rhythm: Presyncope: 0 n
[1]; on Day 1, Safety Set, ponesimod arm (2 mg on Day 1), teriflunomide 14 mg
  AESI effect on heart rate and rhythm (including hypotension): Subjects with at least one AE: 2.1%
[1]; [4]
  TEAE ALT increased: 19.5%
  TEAE headache: 11.5%
  TEAE nasopharyngitis: 19.3%
  TEAE upper respiratory tract infection: 10.6%
  proportion of subjects who experienced ALT increase>3×ULN: 17.3%
  proportion of subjects who experienced ALT increase>8×ULN: 0.7%
  subjects discontinued due to AEs or tolerability related reasons: 6.5%
[2]; all regions and both visits (w60, w108), ponesimod 20 mg vs teriflunomide 14 mg
  average myelination decrease, comparison across treatment arms: significantly less demyelination
[2]; non-lesional corpus callosum, cingulum, remaining NAWM, weeks 60 and 108, p<0.05
  myelination change from baseline (standardized T1/T2): only the corpus callosum showed a significant decrease at w108
Primary mouse OPCs; all concentrations tested, normalised to negative controls
  changes at the gene expression level: No significant changes
MS patients
  Fatigue Symptoms and Impacts Questionnaire-Relapsing Multiple Sclerosis: difference
  active lesions/year: reduction
  annualized relapse rate: greater reduction
  brain volume loss: lower
  disability accumulation risk estimates: reduction
